{"source": "paper PMC8224038", "about": "“Anti-Leukemic Properties of Aplysinopsin Derivative EE-84 Alone and Combined to BH3 Mimetic A-1210477” (Marine Drugs, 2021)", "key": {"K562 cells [1]": {"test_system": "K562 cells", "test": "Trypan blue exclusion test, viability", "assay_type": "cell-based, human", "details": "for viability of K562 cells: concentrations up to 50 µM, 24, 48, 72 h", "experimental": "(§1) Cell proliferation and viability were assessed by the trypan blue exclusion method (Lonza), and viable cells were counted using a hematocytometer (Marienfeld, Lauda-Königshofen, Germany). Differential toxicity was calculated by comparing the viability of RPMI 1788 cells to the viability of cancer cells (normal/cancer cells). The difference in viability was expressed in terms of fold change."}, "K562 cells [2]": {"test_system": "K562 cells", "test": "Trypan blue exclusion test, proliferation (GI50)", "assay_type": "cell-based, human", "details": "concentrations up to 50 µM; 24, 48, 72 h", "experimental": "as §1"}, "K562 cells [3]": {"test_system": "K562 cells", "test": "Cell cycle analysis (PI, FACS)", "assay_type": "cell-based, human", "details": "Celecoxib 40 μM", "experimental": "Cells were collected and fixed in 70% ethanol. DNA was stained with propidium iodide (PI) solution (1 μg/mL, Sigma-Aldrich, St. Louis, MO, USA) in 1XPBS (Biosesang, Seongnam, Korea) for 30 min at 37 °C, supplemented with RNase A (100 μg/mL, Roche, Basel, Switzerland). Samples were analyzed by flow cytometry using the FACSCalibur^TM system, Becton Dickinson (BD) Biosciences (San Jose, CA, USA). Data were recorded statistically (10,000 events/sample) using the Cell Quest software (BD Biosciences) and analyzed using Flow-Jo 8.8.5 software (Tree Star, Inc., Ashland, OR, USA)."}, "K562 cells [4]": {"test_system": "K562 cells", "test": "Annexin V APC/PI staining quantified by FACS", "assay_type": "cell-based, human", "text": "(§2) The percentage of apoptotic cells was quantified as the fraction of cells showing fragmented nuclei, as assessed by fluorescence microscopy (Nikon, Tokyo, Japan) after staining with Hoechst 33342 (Sigma-Aldrich) and propidium iodide (Sigma-Aldrich). In addition, apoptosis was confirmed by Annexin V APC (Biolegend, 640919)/propidium iodide (BD Biosciences, 556547) staining and fluorescence-activated cell sorter (FACS) analysis according to the manufacturer protocol (BD Biosciences, 556547)."}, "K562 cells [5]": {"test_system": "K562 cells", "test": "Hoechst/PI staining by fluorescent microscopy", "assay_type": "cell-based, human", "details": "K562, 24 h, A-1210477 10 µM alone (Figure 7D)", "text": "as §2"}, "K562IR cells": {"test_system": "K562IR cells", "test": "Trypan blue exclusion test, viability", "assay_type": "cell-based", "details": "Homo sapiens, A-1210477 20 µM, 24 h", "experimental": "as §1"}, "zebrafish embryos": {"test_system": "zebrafish embryos", "test": "Zebrafish toxicity", "details": "24 h exposure", "quoted_text": "For toxicity assays, embryos were treated with 0.003% phenylthiourea (PTU) 14 h before the assay to remove pigmentation. Then, 2 h before the assay, the embryo’s shell was eliminated and then treated for up to 24 h with aplysinopsin compounds at indicated concentrations in 24-well plates. Viability and abnormal development were assessed after 24 h of treatment under light microscopy (Carl Zeiss Stereomicroscope DV4, Seoul, Korea). Pictures were taken by fixing embryos onto a glass slide with 3% methylcellulose (Sigma-Aldrich)."}, "RPMI 1788 [6]": {"test_system": "RPMI 1788", "test": "Trypan blue exclusion test, viability (IC50) in noncancerous cells", "assay_type": "cell-based, human", "details": "for IC50: read-out: IC50 (50% cell death)", "experimental": "as §1"}, "RPMI 1788 [7]": {"test_system": "RPMI 1788", "test": "Trypan blue exclusion test, proliferation (GI50) in noncancerous cells", "assay_type": "cell-based, human", "experimental": "as §1"}, "[8]": {"details": "K562, 24 h, A-1210477 10 μM, with z-VAD-fmk (50 μM)"}, "[9]": {"details": "K562, 24 h, Ima 1 μM, with z-VAD-fmk (50 μM)"}}, "note": "Where two headings read alike, the source gives them in different places.", "data": [{"compound": "COc1ccc2c(c1)c(C(=O)C(=O)NNC(=O)CC#N)cn2Cc1ccc(Cl)cc1Cl", "note": "[EE-92, N′-(2-Cyanoacetyl)-2-(1-(2,4-Dichlorobenzyl)-5-Methoxy-1H-Indol-3-yl)-2-Oxoacetohydrazide]", "values": [{"measurement": "viability of K562 cells", "setting": "K562 cells [1]", "result": "only weakly affected"}, {"measurement": "melting point", "result": "242 to 244", "unit": "°C"}, {"measurement": "overall growth of K562 cells", "setting": "K562 cells [2]", "result": "only weakly affected"}]}, {"compound": "COc1ccc2c(c1)c(C(=O)C(=O)NNC(=O)CC#N)cn2Cc1ccccc1", "note": "[EE-80, 2-(1-Benzyl-5-Methoxy-1H-Indol-3-yl)-N′-(2-Cyanoacetyl)-2-Oxoacetohydrazide]", "values": [{"measurement": "viability of K562 cells", "setting": "K562 cells [1]", "result": "only weakly affected"}, {"measurement": "melting point", "result": "199 to 201", "unit": "°C"}, {"measurement": "overall growth of K562 cells", "setting": "K562 cells [2]", "result": "only weakly affected"}]}, {"compound": "N#CCC(=O)NNC(=O)C(=O)c1cn(Cc2ccccc2)c2ccccc12", "note": "[EE-31, 2-(1-Benzyl-1H-Indol-3-yl)-N′-(2-Cyanoacetyl)-2-Oxoacetohydrazide]", "values": [{"measurement": "viability of K562 cells", "setting": "K562 cells [1]", "result": "only weakly affected"}, {"measurement": "melting point", "result": "264 to 266", "unit": "°C"}, {"measurement": "overall growth of K562 cells", "setting": "K562 cells [2]", "result": "only weakly affected"}]}, {"compound": "Cc1ccc(-c2cc(C(F)(F)F)nn2-c2ccc(S(N)(=O)=O)cc2)cc1", "note": "[Celecoxib, reference compound]", "values": [{"measurement": "G1 cell cycle phase", "setting": "K562 cells [3]; K562, 48 h", "result": "64.77 ± 3.09", "unit": "%"}, {"measurement": "G2/M cell cycle phase", "setting": "K562 cells [3]; K562, 48 h", "result": "17.44 ± 2.13", "unit": "%"}, {"measurement": "S cell cycle phase", "setting": "K562 cells [3]; K562, 48 h", "result": "15.00 ± 0.93", "unit": "%"}, {"measurement": "Sub-G1 cell cycle phase", "setting": "K562 cells [3]; K562, 48 h", "result": "2.79 ±1.90", "unit": "%"}, {"measurement": "G1 cell cycle phase", "setting": "K562 cells [3]; K562, 72 h", "result": "68.43 ± 4.67", "unit": "%"}, {"measurement": "G2/M cell cycle phase", "setting": "K562 cells [3]; K562, 72 h", "result": "16.96 ± 3.04", "unit": "%"}, {"measurement": "S cell cycle phase", "setting": "K562 cells [3]; K562, 72 h", "result": "11.20 ± 2.37", "unit": "%"}, {"measurement": "Sub-G1 cell cycle phase", "setting": "K562 cells [3]; K562, 72 h", "result": "3.41 ± 2.04", "unit": "%"}]}, {"compound": "Cc1nn(C)c(COc2ccc(N3CCN(S(=O)(=O)N(C)C)CC3)cc2)c1-c1cccc2c(CCCOc3cccc4ccccc34)c(C(=O)O)n(CCN3CCOCC3)c12", "note": "[Compound A-1210477, reference compound]", "values": [{"measurement": "viability at 10 µM", "setting": "K562 cells [1]; Homo sapiens, K562, A-1210477 10 µM, 24 h", "result": "79.3 ± 1.5", "unit": "%"}, {"measurement": "AnnV+/PI+ (%)", "setting": "K562 cells [4]; K562, 24 h, A-1210477 10 μM", "result": "4.73 ± 0.17", "unit": "%"}, {"measurement": "AnnV+/PI− (%)", "setting": "K562 cells [4]; K562, 24 h, A-1210477 10 μM", "result": "9.31 ± 1.78", "unit": "%"}, {"measurement": "Combined cell death (%)", "setting": "K562 cells [4]; K562, 24 h, A-1210477 10 μM", "result": "14.04 ± 3.24", "unit": "%"}, {"measurement": "AnnV+/PI+ (%)", "setting": "K562 cells [4]; [8]", "result": "2.81 ± 0.21", "unit": "%"}, {"measurement": "AnnV+/PI− (%)", "setting": "K562 cells [4]; [8]", "result": "6.04 ± 0.99", "unit": "%"}, {"measurement": "Combined cell death (%)", "setting": "K562 cells [4]; [8]", "result": "8.85 ± 2.28", "unit": "%"}, {"measurement": "apoptotic cell death", "setting": "K562 cells [5]", "result": "about 14.5%"}, {"measurement": "viability at 20 µM", "setting": "K562IR cells", "result": "73 ± 3.6", "unit": "%"}]}, {"compound": "(Z)-5-((1H-Indol-3-yl)Methylene)-1,3-Dimethylimidazolidine-2,4-Dione [EE-115]", "values": [{"measurement": "viability of K562 cells", "setting": "K562 cells [1]", "result": "only weakly affected"}, {"measurement": "growth (relative body length) of zebrafish", "setting": "zebrafish embryos; concentrations up to 100 µM", "result": "did not affect"}, {"measurement": "survival rate of zebrafish", "setting": "zebrafish embryos; concentrations up to 100 µM", "result": "did not affect"}, {"measurement": "morphological changes of zebrafish", "setting": "zebrafish embryos; embryos 24 hpf, different concentrations", "result": "No significant morphological changes"}, {"measurement": "IC50", "setting": "RPMI 1788 [6]; RPMI 1788, 24 h", "result": "> 50", "unit": "µM"}, {"measurement": "IC50", "setting": "RPMI 1788 [6]; RPMI 1788, 48 h", "result": "> 50", "unit": "µM"}, {"measurement": "IC50", "setting": "RPMI 1788 [6]; RPMI 1788, 72 h", "result": "> 50", "unit": "µM"}, {"measurement": "viability of RPMI 1788 cells", "setting": "RPMI 1788 [6]; up to 50 µM, Figure S4B", "result": "reduced the viability"}, {"measurement": "GI50", "setting": "RPMI 1788 [7]; RPMI 1788, 24 h", "result": "> 50", "unit": "µM"}, {"measurement": "GI50", "setting": "RPMI 1788 [7]; RPMI 1788, 48 h", "result": "30.4 ± 1.95", "unit": "µM"}, {"measurement": "GI50", "setting": "RPMI 1788 [7]; RPMI 1788, 72 h", "result": "27.7 ± 2.3", "unit": "µM"}, {"measurement": "overall growth of K562 cells", "setting": "K562 cells [2]", "result": "only weakly affected"}]}, {"compound": "Cc1ccc(NC(=O)c2ccc(CN3CCN(C)CC3)cc2)cc1Nc1nccc(-c2cccnc2)n1", "note": "[Ima, Imatinib, reference compound]", "values": [{"measurement": "AnnV+/PI+ (%)", "setting": "K562 cells [4]; K562, 24 h, Ima 1 μM", "result": "6.97 ± 0.88", "unit": "%"}, {"measurement": "AnnV+/PI− (%)", "setting": "K562 cells [4]; K562, 24 h, Ima 1 μM", "result": "37.77 ± 4.07", "unit": "%"}, {"measurement": "Combined cell death (%)", "setting": "K562 cells [4]; K562, 24 h, Ima 1 μM", "result": "44.74 ± 21.78", "unit": "%"}, {"measurement": "AnnV+/PI+ (%)", "setting": "K562 cells [4]; [9]", "result": "2.93 ± 0.15", "unit": "%"}, {"measurement": "AnnV+/PI− (%)", "setting": "K562 cells [4]; [9]", "result": "10.86 ± 3.57", "unit": "%"}, {"measurement": "Combined cell death (%)", "setting": "K562 cells [4]; [9]", "result": "13.79 ± 5.60", "unit": "%"}, {"measurement": "AnnV+/PI+ (%)", "setting": "K562 cells [4]; K562, Ima 1 μM (Figure 3B)", "result": "31.27 ± 5.24", "unit": "%"}, {"measurement": "AnnV+/PI− (%)", "setting": "K562 cells [4]; K562, Ima 1 μM (Figure 3B)", "result": "51.77 ± 2.29", "unit": "%"}, {"measurement": "Combined cell death (%)", "setting": "K562 cells [4]; K562, Ima 1 μM (Figure 3B)", "result": "83.03 ± 14.50", "unit": "%"}]}]}
